Source: ChEMBL document CHEMBL5143600, “Discovery and optimization of betulinic acid derivatives as novel potent CD73 inhibitors” (Bioorg Med Chem, 2022)
Calls of active or inactive are those of the source. The rule behind the calls is not given here.

Experiments:
5'-nucleotidase [1] = target: T1, 5'-nucleotidase (Homo sapiens, UniProt P21589); assay: (§1) Inhibition of human CD73 assessed as reduction in inorganic phosphate release upon substrate hydrolysis using AMP[…] as substrate incubated for 1 hr followed by substrate addition and measured after 2 hrs by malachite green reagent based colorimetric assay
5'-nucleotidase [2] = target: T2, 5'-nucleotidase (Mus musculus, UniProt Q61503); assay: Inhibition of mouse CD73 assessed as reduction in inorganic phosphate release upon substrate hydrolysis using AMP[…] as substrate incubated for 1 hr followed by substrate addition and measured after 2 hrs by malachite green reagent based colorimetric assay
T2 sequence (Q61503 whole entry): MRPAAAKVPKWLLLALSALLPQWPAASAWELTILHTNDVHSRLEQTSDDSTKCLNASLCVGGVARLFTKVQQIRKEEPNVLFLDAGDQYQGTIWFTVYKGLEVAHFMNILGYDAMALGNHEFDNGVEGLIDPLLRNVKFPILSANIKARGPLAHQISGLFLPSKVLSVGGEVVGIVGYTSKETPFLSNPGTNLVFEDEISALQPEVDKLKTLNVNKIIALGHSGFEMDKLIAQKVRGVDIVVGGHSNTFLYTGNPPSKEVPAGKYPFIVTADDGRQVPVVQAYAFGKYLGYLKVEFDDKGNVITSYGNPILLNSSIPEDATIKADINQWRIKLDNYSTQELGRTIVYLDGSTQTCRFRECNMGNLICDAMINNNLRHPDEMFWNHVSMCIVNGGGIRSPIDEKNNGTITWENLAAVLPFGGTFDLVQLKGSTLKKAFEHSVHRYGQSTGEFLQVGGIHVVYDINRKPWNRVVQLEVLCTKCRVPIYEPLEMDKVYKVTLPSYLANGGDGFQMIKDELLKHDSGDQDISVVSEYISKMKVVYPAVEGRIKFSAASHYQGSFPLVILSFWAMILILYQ

CD4+ve Th = assay: Induction of anti-CD3/CD28 antibodies-stimulated CD4-positive Th cell activation in C57BL/6J mouse assessed as reversal of AMP/EHNA-inhibited IFN-gamma production at 10 uM preincubated for 15 mins followed by AMP/EHNA addition and measured after 96 hrs by ELISA; assay type: functional, cell-based; settings: time 5775.0 min
MDA-MB-231 = assay: Cytotoxicity against human MDA-MB-231 cells assessed as inhibition of cell growth incubated for 72 hrs by CCK-8 assay; assay type: functional, cell-based; settings: MDA-MB-231, 72 h
MIA PaCa-2 = assay: Cytotoxicity against human MIA PaCa-2 cells assessed as inhibition of cell growth incubated for 72 hrs by CCK-8 assay; assay type: functional, cell-based; settings: MIA PaCa-2, 72 h
5'-nucleotidase [3] = target: T1, 5'-nucleotidase; assay: as §1, with “Potency index, ratio of betulinic acid IC50 to test compound IC50 for inhibition” for “Inhibition”; settings: time 3.0 hrs
[4] = Selectivity index, ratio of IC50 for inhibition of mose CD73 to IC50 for inhibition of human CD73

T1 sequence (P21589 whole entry): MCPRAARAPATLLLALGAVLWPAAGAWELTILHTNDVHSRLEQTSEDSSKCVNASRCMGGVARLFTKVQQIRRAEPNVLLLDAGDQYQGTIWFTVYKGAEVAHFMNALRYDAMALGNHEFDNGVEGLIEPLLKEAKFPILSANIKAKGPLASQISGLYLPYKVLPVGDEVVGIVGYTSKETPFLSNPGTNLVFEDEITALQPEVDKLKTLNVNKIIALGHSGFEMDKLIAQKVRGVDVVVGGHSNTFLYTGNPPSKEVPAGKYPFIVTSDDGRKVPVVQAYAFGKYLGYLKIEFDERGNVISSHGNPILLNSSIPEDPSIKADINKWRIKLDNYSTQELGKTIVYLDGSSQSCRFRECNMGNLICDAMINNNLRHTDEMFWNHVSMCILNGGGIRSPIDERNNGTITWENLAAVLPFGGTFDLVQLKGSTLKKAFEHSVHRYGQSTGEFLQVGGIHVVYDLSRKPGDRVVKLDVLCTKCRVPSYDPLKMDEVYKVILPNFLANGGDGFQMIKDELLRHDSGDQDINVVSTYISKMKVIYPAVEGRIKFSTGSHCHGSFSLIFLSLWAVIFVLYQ

| Compound | IC50 (5'-nucleotidase [1]) | IC50 (5'-nucleotidase [2]) | further results |
| --- | --- | --- | --- |
| C=C(C)[C@@H]1CC[C@]2(C(=O)O)CC[C@]3(C)[C@H](CC[C@@H]4[C@@]5(C)CC[C@H](OC(=O)N6CCN(C)CC6)C(C)(C)[C@@H]5CC[C@]43C)[C@@H]12 | > 100 µM | > 100 µM |  |
| C=C(C)[C@@H]1CC[C@]2(C(=O)O)CC[C@]3(C)[C@H](CC[C@@H]4[C@@]5(C)CC[C@H](O)C(C)(C)[C@@H]5CC[C@]43C)[C@@H]12 [BETULINIC ACID] | 7.28 µM | 68.8 µM | Activity (CD4+ve Th): Active; IC50 (MDA-MB-231): 19.1 µM; IC50 (MIA PaCa-2): 26.7 µM |
| C=C(C)[C@@H]1CC[C@]2(C(=O)O)CC[C@]3(C)[C@H](CC[C@@H]4[C@@]5(C)CCC(=O)C(C)(C)[C@@H]5CC[C@]43C)[C@@H]12 [BETUNOLIC ACID] | 43.3 µM |  |  |
| C=C(C)[C@@H]1CC[C@]2(C(=O)O)CC[C@]3(C)[C@H](CC[C@@H]4[C@@]5(C)CC[C@H](OC(=O)NCCO)C(C)(C)[C@@H]5CC[C@]43C)[C@@H]12 | 37.2 µM | > 100 µM |  |
| C=C(C)[C@@H]1CC[C@]2(C(=O)O)CC[C@]3(C)[C@H](CC[C@@H]4[C@@]5(C)CC[C@H](OC(=O)NC6CC6)C(C)(C)[C@@H]5CC[C@]43C)[C@@H]12 | 81.4 µM | > 100 µM |  |
| C=C(C)[C@@H]1CC[C@]2(C(=O)O)CC[C@]3(C)[C@H](CC[C@@H]4[C@@]5(C)CC[C@H](OC(=O)N6CCCCC6)C(C)(C)[C@@H]5CC[C@]43C)[C@@H]12 |  | 14.6 µM | Ratio IC50 (5'-nucleotidase [3]): 5.2; IC50 (MDA-MB-231): > 100 µM; Ratio IC50 [4]: 10.5; IC50 (MIA PaCa-2): > 100 µM |
| C=C(C)[C@@H]1CC[C@]2(C(=O)O)CC[C@]3(C)[C@H](CC[C@@H]4[C@@]5(C)CC[C@H](OC(=O)N6CC(O)C6)C(C)(C)[C@@H]5CC[C@]43C)[C@@H]12 | > 100 µM | > 100 µM |  |
| C=C(C)[C@@H]1CC[C@]2(C(=O)O)CC[C@]3(C)[C@H](CC[C@@H]4[C@@]5(C)CC[C@H](OC(=O)NCCN6CCOCC6)C(C)(C)[C@@H]5CC[C@]43C)[C@@H]12 | > 100 µM | > 100 µM |  |
| Nc1ccn([C@@H]2O[C@H](CO)[C@@H](O)C2(F)F)c(=O)n1 [GEMCITABINE] |  |  | IC50 (MDA-MB-231): 2.22 µM; IC50 (MIA PaCa-2): 0.36 µM |
| C=C(C)[C@@H]1CC[C@]2(C=O)CC[C@]3(C)[C@H](CC[C@@H]4[C@@]5(C)CC[C@H](O)C(C)(C)[C@@H]5CC[C@]43C)[C@@H]12 [BETULINALDEHYDE] | > 100 µM |  |  |
| C=C(C)[C@@H]1CC[C@]2(C(=O)O)CC[C@]3(C)[C@H](CC[C@@H]4[C@@]5(C)CC[C@H](OC(=O)N6CCNCC6)C(C)(C)[C@@H]5CC[C@]43C)[C@@H]12 | 16.8 µM | 33.6 µM | Ratio IC50 [4]: 2 |
| C=C(C)[C@@H]1CC[C@]2(C(=O)O)CC[C@]3(C)[C@H](CC[C@@H]4[C@@]5(C)CC[C@H](OC(=O)N6CCC(N)CC6)C(C)(C)[C@@H]5CC[C@]43C)[C@@H]12 | > 100 µM | > 100 µM |  |
| C=C(C)[C@@H]1CC[C@]2(C(=O)O)CC[C@]3(C)[C@H](CC[C@@H]4[C@@]5(C)CC[C@H](O)[C@@](C)(CO)[C@@H]5CC[C@]43C)[C@@H]12 | > 100 µM |  |  |
| C=C(C)[C@@H]1CC[C@]2(C(=O)O)CC[C@]3(C)[C@H](CC[C@@H]4[C@@]5(C)CC[C@H](OC(=O)N6CCCC6)C(C)(C)[C@@H]5CC[C@]43C)[C@@H]12 | > 100 µM | > 100 µM |  |
| Nc1ncnc2c1ncn2[C@@H]1O[C@H](COP(=O)(O)CP(=O)(O)O)[C@@H](O)[C@H]1O |  |  | Activity (CD4+ve Th): Active |
| C=C(C)[C@@H]1CC[C@]2(C(=O)O)CC[C@]3(C)[C@H](CC[C@@H]4[C@@]5(C)CC[C@H](OC(=O)NC(C)C)C(C)(C)[C@@H]5CC[C@]43C)[C@@H]12 | 5.69 µM | 59 µM | Ratio IC50 (5'-nucleotidase [3]): 1.3; IC50 (MDA-MB-231): > 100 µM; Ratio IC50 [4]: 10.4; IC50 (MIA PaCa-2): 77.2 µM |
